Where no end group is shown, it is not given here.
How the values were obtained:
[1] = tested on: DPP-IV; experiment: in vitro; details: human, isolated enzyme dpp iv
Method: Stability test for DPP-IV in vitro was performed as previously described.

[2] = tested on: NOD mice; details: 210 nmol/kg s.c. twice weekly for 24 weeks
Method: Female 4-week-old NOD mice were obtained from Beijing HFK Bioscience Co. Ltd. (Beijing, China). NOD mice were randomly divided into 4 groups: vehicle, PGLP-1, VP and PGLP-1-VP, and each group was subcutaneously injected twice weekly with placebo [Lipofundin[32] (B. Braun Melsungen AG, Melsungen, Germany)] or 210 nmol/kg of peptides for 24 weeks. Body weight and blood glucose were measured once every 2 weeks until the end of the observation period. NOD mice were considered diabetic when blood glucose concentrations exceeded 200 mg/dL for 2 consecutive measurements. The onset time and death time of diabetic mice were calculated. Indexes of dead mice were shown as the last blood glucose or weight data. Blood samples were collected retro-orbital and centrifuged, and then serum was collected. Serum C-peptide levels and transforming growth factor-β1 (TGF-β1) were measured by enzyme-linked immunosorbent kits (Jiancheng Bio-Engineering Institute Co., Ltd. Nanjing, China).

[3] = target: human GLP-1R (Homo sapiens, UniProt P43220); experiment: cell-based
human GLP-1R, sequence (P43220 24-463): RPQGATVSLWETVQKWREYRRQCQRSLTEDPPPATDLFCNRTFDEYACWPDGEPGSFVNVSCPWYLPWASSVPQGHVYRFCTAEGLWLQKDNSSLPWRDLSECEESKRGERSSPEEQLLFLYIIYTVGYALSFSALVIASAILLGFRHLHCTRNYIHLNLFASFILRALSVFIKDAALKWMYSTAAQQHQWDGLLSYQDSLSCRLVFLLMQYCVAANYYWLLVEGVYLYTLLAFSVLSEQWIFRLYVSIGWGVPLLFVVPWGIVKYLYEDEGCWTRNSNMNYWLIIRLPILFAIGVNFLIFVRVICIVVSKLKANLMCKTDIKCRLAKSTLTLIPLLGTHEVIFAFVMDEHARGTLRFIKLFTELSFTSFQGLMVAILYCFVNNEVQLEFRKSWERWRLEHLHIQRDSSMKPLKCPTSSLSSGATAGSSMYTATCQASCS
Method: Human embryonic kidney (HEK-293) cells were obtained from ATCC and cultured in growing media (DMEM: 25 mM glucose, 10% FBS, 100 µg/mL penicillin and 100 µg/mL streptomycin).

remaining at 10 h, 10 µM [1] [%] | Compound | body weights compared to controls [2] | EC50 [3] [nM]
6.3 | CC[C@H](C)[C@H](NC(=O)[C@H](Cc1ccccc1)NC(=O)[C@H](CCC(=O)O)NC(=O)[C@H](CCCCN)NC(=O)[C@H](C)NC(=O)[C@H](C)NC(=O)[C@H](CCC(N)=O)NC(=O)CNC(=O)[C@H](CCC(=O)O)NC(=O)[C@H](CC(C)C)NC(=O)[C@H](Cc1ccc(O)cc1)NC(=O)[C@H](CO)NC(=O)[C@H](CO)NC(=O)[C@@H](NC(=O)[C@H](CC(=O)O)NC(=O)[C@H](CO)NC(=O)[C@@H](NC(=O)[C@H](Cc1ccccc1)NC(=O)[C@@H](NC(=O)CNC(=O)[C@H](CCC(=O)O)NC(=O)[C@H](C)NC(=O)[C@@H](N)Cc1c[nH]cn1)[C@@H](C)O)[C@@H](C)O)C(C)C)C(=O)N[C@@H](C)C(=O)N[C@@H](Cc1c[nH]c2ccccc12)C(=O)N[C@@H](CC(C)C)C(=O)N[C@H](C(=O)N[C@@H](CCCCN)C(=O)NCC(=O)N[C@@H](CCCN=C(N)N)C(=O)NCC(=O)O)C(C)C [GLP-1, Glucagon-like peptide-1] | – | –
– | HGEGTFTSDVSSYLEGQAAKEFIAWLVKGRGPGVLGGGCRCIPALDSLTPANED (cysteines drawn unpaired) [PGLP-1-VP] | not affected | 139 ± 37

Reference: publication PMC7878925, “Continuous stimulation of dual-function peptide PGLP-1-VP inhibits the morbidity and mortality of NOD mice through anti-inflammation and immunoregulation” (Scientific Reports, 2021)
